According to paper PMC3006138, “Fexinidazole – A New Oral Nitroimidazole Drug Candidate Entering Clinical Development for the Treatment of Sleeping Sickness” (PLoS Neglected Tropical Diseases, 2010):

Assay: Excretion balance
Assay type: in vivo, rat
Conditions: for excreted percent of dose, faeces / excreted percent of dose, urine: 800 mg/kg po; for radioactivity eliminated: within 48 h
Method: Excretion balance in rats was carried out using a single oral dose of radiolabelled fexinidazole administered at the dose of 800 mg/kg (approximately 3.7 MBq/kg, 100 µCi/kg) by gastric gavage to three male albino Sprague Dawley rats. […]
This study was conducted according to Protocol N° 0162-2008 and to Amendment 1. A copy of the experimental protocol is included in Appendix 1; a copy of the amendment is included […]
FEXINIDAZOLE is a 5-nitroimidazole derivative biologically active against Trypanosoma parasites (T.b. rhodesiense and T.b. brucei) and useful in the treatment of the Human African Trypanosomiasis (HAT), known as sleeping sickness. FEXINIDAZOLE is a compound currently under development by the Sponsor.
The objective of this study was to obtain information on the elimination of radioactive drug-related material in urine and faeces following oral administration of [14C]-FEXINIDAZOLE (800 mg/kg) to male Sprague Dawley rats.
The albino Sprague Dawley rat was chosen as the species for this study since it was one of the species used in the toxicological evaluation of the test compound.
Only male animals were used as no gender differences were expected with respect to the aim of the study. The oral route of administration was chosen as this is the intended therapeutic route. The dose level was selected in agreement with the Study Sponsor and it is within the pharmacological relevant range. No overt toxicity was expected after single dosing at this […]
The study was conducted on 3 male animals after single oral administration of [14C]- FEXINIDAZOLE (800 mg/kg, approximately 3.7 MBq/kg, 100 µCi/kg).
Urine and faeces were collected up to 96 hours after administration. The radioactivity levels of drug-related material were determined in each collected sample by Liquid Scintillation […]
A summary of the experimental design is reported below:
Animal no. Date of Dosing Administered Dose Samples collected and (oral administration) analyzed
100 µCi/kg washes, carcass and skin […]
The test formulations were prepared by suspending unlabelled FEXINIDAZOLE and [14C]- FEXINIDAZOLE (see section 5.1) in 5% Tween 80 and 0.5% Methyl cellulose 400 cP (Methocel) in water, in order to obtain [14C]-FEXINIDAZOLE at the final target concentration of 80 mg/mL corresponding to a radioactivity concentration of about 370 […]
The test formulation was prepared by suspending an appropriate amount of unlabelled FEXINIDAZOLE in the dose vehicle. This formulation was homogenised using a Potter-Elvehjem homogenizer apparatus (teflon pestle of approx. 30 mm x 53 mm and glass tube of 40 mL), in order to obtain a fine suspension by up-and-down strokes, gently made by hand. The formulation was then collected and transferred from the homogeniser glass tube to the glass pot containing the [14C]-FEXINIDAZOLE.
During the preparation the test formulation was protected from light as far as possible.
The radioactivity concentration and homogeneity of the test formulation were determined, before administration, by liquid scintillation counting of triplicate weighed aliquots of test formulation. The radiolabelled test formulation was used immediately after formulation.
6.7.1. Administered Doses
The dose of [14C]-FEXINIDAZOLE was orally administered by gastric gavage at the target dose level of 800 mg/kg (radioactivity dose of about 3.7 MBq/kg, 100 µCi/kg) and at a target dose volume of about 10 mL/kg.
Individual doses were prepared for each animal by weighing the appropriate amount of the test formulation in an appropriate syringe for oral administration. The amount of dose administered to each animal was determined by weighing the filled syringe before the treatment and the empty syringe after dose administration. The actual dose received by each animal was calculated using the weight of the administered formulation, the radioactivity concentration and the final specific activity of the test material.
The actual doses received by each animal are documented in Table 1. […]

[1] = 0-96 h, listed as [14C]-FEXINIDAZOLE

SMILES: CSc1ccc(OCc2ncc([N+](=O)[O-])n2C)cc1 [Fexinidazole, 1-methyl-2-((p-(methylthio)phenoxy)methyl)-5-nitroimidazole]
- overall recovery of total radioactivity (0-96 h): approximately 93%
- percent of dose, cage washing (0-96 h): 2.73%
- radioactivity recovered in all the excreta (including cage washes) (0-96 h): Approximately 91.4%
- overall recovery of total radioactivity [1]: 92.87%
- excreted percent of dose, faeces (0-96 h): 59%
- excreted percent of dose, urine (0-96 h): 30%
- excreted percent of dose, faeces [1]: 58.77%
- excreted percent of dose, urine [1]: 29.92%
- dose recovered from the carcass (and skin) (96 h): About 1.4%
- percent of dose, carcass (96 h): 1.01%
- percent of dose, skin (96 h): 0.43%
- radioactivity eliminated: 84%
- radioactivity eliminated (listed as [14C]-FEXINIDAZOLE): about 84.3%
